Assay results as given in publication PMC8241022 (Drug Delivery, 2017).
Read-outs that look alike come from different tables or passages of the source. Marks after values point to notes of the source that are not given here.

Experiments:
[1] = for dexamethasone concentration, Choroidal/retinal compound / dexamethasone concentration, Sclera / dexamethasone concentration, Vitreum: IV: intravenous injection of 1 mg/kg DEXP, mean ± SD, n=6
Description: (§1) Male and female New Zealand albino rabbits (about four months old and weighing 2.0–2.5 kg) were acquired from the Third Xiangya Hospital of Central South University (Changsha, China). All rabbits were examined thoroughly, and no ocular disease, then were randomly allocated to different groups for subsequent ocular PK studies. Animals were anesthetized by intramuscularly injecting Xylazine Hydrochloride Injection (2 ml:0.2 g, Huamu Animal Health Products Co., Jilin, 0.1–0.2 ml/kg) and dropped Oxybuprocaine Hydrochloride Eye Drops (20 ml:80 mg, Sa) three times, interval 2 min per time.
(§2) Rabbits were randomly divided into three groups and six rabbits for each group per time point. […] After the last instillation in IV group (1 h, 3 h, 6 h, 12 h, 24 h) and SC injection group (1 h, 2 h, 3 h, 4 h, 6 h, 8 h, 12 h, 24 h), respectively, the ocular tissue were collected. […] Animals were euthanized by 3 ml lidocaine (3 ml/rabbit) and 3 ml air intravenously, immediately after death, ocular tissues were collected. Vitreous, choroid/retina and sclera were dissected and weighted as the solid tissues, the samples were stored at −20 °C and then processed for analysis.
(§3) Frozen rabbit samples were thawed at ambient temperature, the solid samples were fixed with 400 ml 0.9% normal saline (NS) and homogenized. A 100 μl aliquot of Triamcinolone diacetate (I.S. 200 ng/ml) standard solution was added to 100 μl of each fluid sample and 400 μl 0.9% NS or homogenized samples. After a thorough vortex mixing for 30 s, the mixture was extracted with 1 ml n-hexane and acetate ester (1:1, v/v) for 60 min, the mixture was centrifuged at 14 000 rpm for 5 min. The organic layer was removed and evaporated under a gentle stream nitrogen gas at 45 °C until it was completely dry. The dried residue was dissolved with 50 μl mobile phase. After centrifugation, 5 μl of the clear supernatant was injected into the LC–MS system: LC-10AD VP low pressure gradient pump, CTO-10A VP column temperature oven, SCL-10AD VP system controller, and LC-MS chemstation. Separation was achieved on a Thermo Hypersil-Hypurity C18 column (150 mm × 2.1 mm, i.d., 5 μm, USA) at 40 °C. […] The operating parameters of ESI–MS (electrospray ionization–mass spectrometry) were as follows: capillary voltage was 4.5 kV; nebulizer nitrogen gas flow-rate was 1.5 l/min; drying N2 flow was 10 l/min; drying gas temperature was 250 °C, the gas used was of high purity, and system control and data evaluation were carried out using LC-MS chemstation (Japan). […] Quantitation was performed by a linear regression analysis of peak areas ratio from a standard curve containing seven standard points.
(§4) The following pharmacokinetic parameters were obtained: peak concentration (Cmax), time to peak concentration (Tmax), elimination half-life (T1/2), area under the concentration–time curve between 0 and 24 h (AUC0–24).
(§5) Tissue concentrations were analyzed using one-way analysis of variance (ANOVA). If there were differences in three groups, we used Dunnett T3 to analyze two groups. All other results were descriptive measures. Statistical significance was accepted at a level of p < 0.05.

in vivo [2] = details: both, New Zealand albino, rabbit, iv, 1 mg/kg
Description: as §1, §2, §3, §4, §5

[3] = SC: subconjunctival injection of 0.3 ml (5 mg/ml) DEXP, mean ± SD, n=6
Description: as §1, §2, §3, §4, §5

[4] = for dexamethasone concentration, Choroidal/retinal compound / dexamethasone concentration, Sclera / dexamethasone concentration, Vitreum: CCSDD: first dose 0.3 ml (5 mg/ml) DEXP, then 0.1 ml/h for 10 h, mean ± SD, n=6
Description: as §1, §2, §3, §4, §5

in vivo [5] = details: both, New Zealand albino, rabbit; for Tmax: CCSDD group, 0.3 ml (5 mg/ml) DEXP then 0.1 ml/h for 10 h
Description: as §1, §2, §3, §4, §5

C[C@@H]1C[C@H]2[C@@H]3CCC4=CC(=O)C=C[C@]4(C)[C@@]3(F)[C@@H](O)C[C@]2(C)[C@@]1(O)C(=O)CO [dexamethasone]
AUC0–24, choroid/retinal compound ([1]; IV route, rabbit): 1571.71 ng·h/g | AUC0–24, sclera ([1]; IV route, rabbit): 2858.71 ng·h/g | dexamethasone concentration, Choroidal/retinal compound ([1]; 1 h): 140.57 ± 34.56^a | dexamethasone concentration, Sclera ([1]; 1 h): 281.42 ± 60.13^a | dexamethasone concentration, Vitreum ([1]; 1 h): 43.78 ± 2.62 | dexamethasone concentration, Sclera ([1]; 3 h): 402.99 ± 96.49^a | dexamethasone concentration, Vitreum ([1]; 3 h): 30.08 ± 2.55^a | dexamethasone concentration, Choroidal/retinal compound ([1]; 6 h): 90.75 ± 12.08^a | dexamethasone concentration, Sclera ([1]; 6 h): 141.57 ± 31.46^a | dexamethasone concentration, Vitreum ([1]; 6 h): 21.53 ± 2.66^a | dexamethasone concentration, Choroidal/retinal compound ([1]; 12 h): 38.94 ± 13.00^a | dexamethasone concentration, Sclera ([1]; 12 h): 64.38 ± 11.83^a | dexamethasone concentration, Vitreum ([1]; 12 h): 5.34 ± 5.11^a | dexamethasone concentration, Choroidal/retinal compound ([1]; 24 h): 3.71 ± 4.50^a | dexamethasone concentration, Sclera ([1]; 24 h): 22.23 ± 7.44^a | dexamethasone concentration, Vitreum ([1]; 24 h): 1.37 ± 2.14^a | Cmax (in vivo [2]; choroid/retina): 285 ng/g | Tmax (in vivo [2]; choroid/retina): 3 h | Cmax (in vivo [2]; sclera): 403 ng/g | Tmax (in vivo [2]; sclera): 3 h | AUC(0-t) (in vivo [2]; vitreous): 285 ng·h/mL | Cmax (in vivo [2]; vitreous): 43.8 ng/mL | Tmax (in vivo [2]; vitreous): 1 h | dexamethasone concentration, Choroidal/retinal compound ([3]; 1 h): 1881.83 ± 336.98^a | dexamethasone concentration, Sclera ([3]; 1 h): 8604.95 ± 1597.26 | dexamethasone concentration, Vitreum ([3]; 1 h): 63.19 ± 15.12 | dexamethasone concentration, Choroidal/retinal compound ([3]; 2 h): 3212.63 ± 796.76 | dexamethasone concentration, Sclera ([3]; 2 h): 6071.65 ± 737.76 | dexamethasone concentration, Vitreum ([3]; 2 h): 80.45 ± 11.10 | dexamethasone concentration, Choroidal/retinal compound ([3]; 3 h): 3638.80 ± 580.05 | dexamethasone concentration, Sclera ([3]; 3 h): 4419.68 ± 1006.87^a | dexamethasone concentration, Vitreum ([3]; 3 h): 73.77 ± 14.74 | dexamethasone concentration, Choroidal/retinal compound ([3]; 4 h): 1701.27 ± 551.90 | dexamethasone concentration, Sclera ([3]; 4 h): 2287.56 ± 742.66 | dexamethasone concentration, Vitreum ([3]; 4 h): 39.65 ± 8.87 | dexamethasone concentration, Choroidal/retinal compound ([3]; 6 h): 1333.65 ± 469.43^a | dexamethasone concentration, Sclera ([3]; 6 h): 1645.75 ± 631.69^a | dexamethasone concentration, Vitreum ([3]; 6 h): 34.53 ± 6.89 | dexamethasone concentration, Choroidal/retinal compound ([3]; 8 h): 760.86 ± 177.74 | dexamethasone concentration, Sclera ([3]; 8 h): 1031.78 ± 443.14 | dexamethasone concentration, Vitreum ([3]; 8 h): 28.29 ± 4.56 | dexamethasone concentration, Sclera ([3]; 12 h): 463.21 ± 136.14^a | dexamethasone concentration, Vitreum ([3]; 12 h): 22.68 ± 5.40^a | dexamethasone concentration, Choroidal/retinal compound ([3]; 24 h): 184.59 ± 94.86^a | dexamethasone concentration, Sclera ([3]; 24 h): 237.94 ± 139.25^a | dexamethasone concentration, Vitreum ([3]; 24 h): 3.71 ± 4.31^a | AUC0–24, choroid/retinal compound ([4]; CCSDD administration, rabbit): 41400.70 ng·h/g | AUC0–24, sclera ([4]; CCSDD administration, rabbit): 93577.80 ng·h/g | dexamethasone concentration, Choroidal/retinal compound ([4]; 1 h after first dose): 2522.46 ± 425.94 | dexamethasone concentration, Sclera ([4]; 1 h after first dose): 11192.22 ± 5302.51 | dexamethasone concentration, Vitreum ([4]; 1 h after first dose): 71.05 ± 30.23 | dexamethasone concentration, Choroidal/retinal compound ([4]; 3 h after first dose): 3291.35 ± 438.11 | dexamethasone concentration, Sclera ([4]; 3 h after first dose): 9785.20 ± 1964.12 | dexamethasone concentration, Vitreum ([4]; 3 h after first dose): 57.23 ± 12.34 | dexamethasone concentration, Choroidal/retinal compound ([4]; 6 h after first dose): 2331.09 ± 454.41 | dexamethasone concentration, Sclera ([4]; 6 h after first dose): 6215.17 ± 1871.83 | dexamethasone concentration, Vitreum ([4]; 6 h after first dose): 50.23 ± 13.77 | dexamethasone concentration, Choroidal/retinal compound ([4]; 10 h after first dose): 1796.19 ± 380.36 | dexamethasone concentration, Sclera ([4]; 10 h after first dose): 4053.03 ± 1330.47 | dexamethasone concentration, Vitreum ([4]; 10 h after first dose): 50.51 ± 8.40 | dexamethasone concentration, Choroidal/retinal compound ([4]; 11 h after first dose): 1518.52 ± 332.81 | dexamethasone concentration, Sclera ([4]; 11 h after first dose): 3857.47 ± 1508.05 | dexamethasone concentration, Vitreum ([4]; 11 h after first dose): 42.84 ± 6.24 | dexamethasone concentration, Choroidal/retinal compound ([4]; 12 h after first dose): 1191.62 ± 303.29 | dexamethasone concentration, Sclera ([4]; 12 h after first dose): 1913.73 ± 389.28 | dexamethasone concentration, Vitreum ([4]; 12 h after first dose): 33.52 ± 5.31 | dexamethasone concentration, Choroidal/retinal compound ([4]; 16 h after first dose): 988.97 ± 336.43 | dexamethasone concentration, Sclera ([4]; 16 h after first dose): 1215.48 ± 449.07 | dexamethasone concentration, Choroidal/retinal compound ([4]; 20 h after first dose): 812.90 ± 188.26 | dexamethasone concentration, Sclera ([4]; 20 h after first dose): 906.40 ± 312.84 | dexamethasone concentration, Vitreum ([4]; 20 h after first dose): 27.78 ± 3.26 | dexamethasone concentration, Choroidal/retinal compound ([4]; 24 h after first dose): 418.20 ± 97.81 | dexamethasone concentration, Sclera ([4]; 24 h after first dose): 484.52 ± 155.25 | dexamethasone concentration, Vitreum ([4]; 24 h after first dose): 22.40 ± 4.38 | Cmax (in vivo [5]; choroid/retina): 3220 ng/g | Cmax (in vivo [5]; in vivo, topical or ocular, 6.5 mg): 71 ng/mL | Tmax (in vivo [5]; in vivo, topical or ocular, 6.5 mg, Choroidal/retinal compound): 3 h | Tmax (in vivo [5]; in vivo, topical or ocular, 6.5 mg, Sclera): 1 h | Tmax (in vivo [5]; in vivo, topical or ocular, 6.5 mg, Vitreum): 1 h | Cmax (in vivo [5]; sclera): 11200 ng/g | AUC(0-t) (in vivo [5]; vitreous, topical or ocular, 6.5 mg): 1410 ng·h/mL
